# Data: patent publication US12208091B2, “Compounds for treatment of eye diseases associated with excessive vascularisation” (Active Biotech AB, priority 2019, dated 2025)
# Entries after “also recorded” stand apart in the source; their conditions may differ.
# How the values were obtained:
# [1] = test system: Human retinal microvascular endothelial cells (HRMECs); assay: LPS-activated microglia-induced HRMEC tube formation (co-culture); assay type: cell-based; details: 10 μM; normalised to vehicle 0%, sulforaphane 100%
# Method: The following experimental groups were included in the study: • Group 1: […] Sulforaphane (10 μM, positive control, anti-angiogenic effects) • Group 3: Aflibercept (“Eylea” 40 μg/ml, positive control, partial anti-angiogenic effects) • Group 4: […] Human retinal microvascular endothelial cells (HRMECs) were purchased from Neuromics (Cat #HEC09, Lot #2872) and cultured according to manufacturer's instructions in Endo-Growth media (Cat #EKG001, Lot #EKG0011902269) supplemented with Endothelial Growth Factor (Cat #EKG001, Lot #EGK00125) on AlphaBiocoat coated T25 flasks at 37° C. 5% CO2. […] Human microglia were seeded onto PLL coated cell culture inserts (Sarstedt, Cat #83.3932.040) at 103 000 cells/cm^2. […] The method for co-cultures of microglia and HRMECs was modified from protocol described by Ding et al. 2018 (Ding X, Gu R, Zhang M, Ren H, Shu Q, Xu G, Wu H. Microglia enhanced the angiogenesis, migration and proliferation of co-cultured RMECs. […] PMID: 30223824; PMCID: PMC6142340) and Ji Cho et al. 2019 (Ji Cho M, Yoon […], Park J, Lee J, Park J G, Cho Y L, Hun Kim J, Jang H, Park Y J, Lee S H, Min J K. Oxidative stress-mediated TXNIP loss causes RPE dysfunction. […] PMID: 31615975; PMCID: PMC6802648). Microglia was activated with LPS (100 ng/ml) in microglia complete growth media without FBS with simultaneous treatment of freshly prepared study compounds, Eylea and vehicle for 24 hours. HRMECs were incubated in basal Endo-Growth media for 24 hours before co-culturing. […] Media in microglia inserts containing LPS was replaced to corresponding freshly prepared study compounds, aflibercept and sulforaphane in basal Endo-Growth media. […] 5% CO2, stained with calcein-AM (5 μM) for 30 min and imaged using a fluorescence microscope (Leica Thunder 3D Tissue Imager, Leica Microsystems). Images were analyzed using the AngioTool software (Zudaire E, Gambardella L, Kurcz […] Computational Tool for Quantitative Analysis of Vascular Networks. PLOS ONE 6(11): e27385. https://doi.org/10.1371/journal.pone.0027385) for ImageJ (NIH public domain). Total tube area, tube length, density, lacunarity, and branching index (number of junctions and endpoints) were quantified. Images were analyzed using AngioTool software (NIH, Bethesda, MD; available in the public domain) for the following readouts: average vessels length, total vessels length, vessel area, vessels percentage area, total number of junctions, density of junctions, total number of endpoints, and mean lacunarity. […] Raw data for each of the readouts was plotted and analyzed by ordinary one-way ANOVA with Dunnett's multiple comparisons post-hoc test. […] Effect size data were analyzed by non-parametric Kruskal-Wallis test, with Dunn's multiple comparisons post-hoc test.
# relapsing MS patients = details: clinical development program; cited from earlier work
# [2] = test system: bFGF induced corneal vascularisation; assay: bFGF induced corneal vascularisation (pellet in corneal pocket), area of neovascularisation; assay type: in vivo, C57BL/6 mice
# [3] = test system: VEGF induced corneal vascularisation; assay: VEGF induced corneal vascularisation (pellet in corneal pocket), area of neovascularisation; assay type: in vivo, C57BL/6 mice; design: Area of vasc.: unit not given beside the values
# Method: (§1) The area of the neovascularisation can be measured using the formula: Area=0.2·VL·CH·π wherein vessel length (VL) and continuous circumferential zone (in clock hours=CH) are measured as defined in FIG. 1. Treatment with Laquinimod of VEGF Induced Corneal Vascularisation
# Hydron pellets for induction of vascularisation were prepared from stimulant (VEGF) and binding agent (sucralfate).
# 53 CR female C57BL/6 mice aged 6 to 8 weeks were prepared for surgery by anesthetising with 90 mg/kg of pentobarbital, ip. Corneal vascularisation was induced by placement of a pellet in a corneal pocket cut in one eye. Signs for ocular irritation or infection were carefully monitored.
# […] Vascularisation was measured on day 8.
# [4] = test system: bFGF induced corneal vascularisation; assay: bFGF induced corneal vascularisation (pellet in corneal pocket), area of neovascularisation; assay type: in vivo, C57BL/6 mice; remark: listed apart in the source
# Method: as §1
# Hydron pellets for induction of vascularisation were prepared from stimulant (bFGF) and binding agent (sucralfate).
# 47 CR female C57BL/6 mice aged 6 to 8 weeks were prepared for surgery by anesthetising with 90 mg/kg of pentobarbital, ip. Corneal vascularisation was induced by placement of a pellet in a corneal pocket cut in one eye. Signs for ocular irritation or infection were carefully monitored.
# Dosages of laquinimod in DI (deionised) water, vehicle (DDW=double distilled water), and avastin (positive control) were applied directly to the eye containing the pellet. Vascularisation was measured on day 6.
# [5] = group 4: 10 μg/animal topical bid ×5, measured day 6
# [6] = group 6: 10 μg/animal topical qid ×5, measured day 6
# [7] = group 7: 50 μg/animal topical qid ×5, measured day 6
# [8] = group 4: 10 μg/animal topical bid ×7, measured day 8
# [9] = group 5: 50 μg/animal topical bid ×7, measured day 8
# [10] = group 6: 10 μg/animal topical qid ×7, measured day 8
# [11] = group 7: 50 μg/animal topical qid ×7, measured day 8
# [12] = group 5: 50 μg/animal topical bid ×5, measured day 6
smiles,measurement,setting,value
CCN(C(=O)c1c(O)c2c(Cl)cccc2n(C)c1=O)c1ccccc1 [laquinimod],Normalized effect size on average vessel length,[1],53%
same,annual relapse rate,relapsing MS patients,consistent clinical benefit
same,Inhibition of corneal vascularisation induced by bFGF,"[2]; 0.5 mg/kg qid, group 6",37%
same,Area of vasc.,[2]; [5],3.16 ± 0.06
same,Area percent of positive control,[2]; [5],89%
same,Area of vasc.,[2]; [6],2.25 ± 0.16
same,Area percent of positive control,[2]; [6],63%
same,Area percent of positive control,[2]; [7],44%
same,Inhibition of corneal vascularisation induced by VEGF,"[3]; 0.5 mg/kg bid, group 4",did not provide for any inhibition; also recorded: no inhibition
same,Inhibition of corneal vascularisation induced by VEGF,"[3]; 0.5 mg/kg qid, group 6",8%
same,Inhibition of corneal vascularisation induced by VEGF,"[3]; 2.5 mg/kg bid, group 5",46%
same,Inhibition of corneal vascularisation induced by VEGF,"[3]; 2.5 mg/kg qid, group 7",50%
same,Area of vasc.,[3]; [8],1.49 ± 0.13
same,Area percent of positive control,[3]; [8],101%
same,Area of vasc.,[3]; [9],0.79 ± 0.06
same,Area percent of positive control,[3]; [9],54%
same,Area of vasc.,[3]; [10],1.35 ± 0.09
same,Area percent of positive control,[3]; [10],92%
same,Area of vasc.,[3]; [11],0.74 ± 0.11
same,Area percent of positive control,[3]; [11],50%
same,Inhibition of corneal vascularisation induced by bFGF,"[4]; 0.5 mg/kg bid, group 4",11%
same,Inhibition of corneal vascularisation induced by bFGF,"[4]; 2.5 mg/kg bid, group 5",35%
same,Inhibition of corneal vascularisation induced by bFGF,"[4]; 2.5 mg/kg qid, group 7",56%
same,Area of vasc.,[4]; [12],2.30 ± 0.23
same,Area percent of positive control,[4]; [12],65%
same,Area of vasc.,[4]; [7],1.56 ± 0.15
